Active and inactive are the calls of the source. The calls are words filed in the database; no cut-off is given here.
Columns and labels:
[1] = tested on: Acanthocheilonema viteae; assay: Antifilarial activity against Acanthocheilonema viteae infected Mastomys coucha assessed as sterilization of female worms at 50 mg/kg, ip for 5 days relative to control; assay type: functional, organism-based; set-up: dose 50 mg/kg
[2] = tested on: Acanthocheilonema viteae; assay: Antifilarial activity against Acanthocheilonema viteae infected Mastomys coucha assessed as macrofilariacidal activity at 50 mg/kg, ip for 5 days relative to control; assay type: functional
[3] = tested on: Acanthocheilonema viteae; assay: Antifilarial activity against Acanthocheilonema viteae infected Mastomys coucha assessed as microfilariacidal activity at 50 mg/kg, ip for 5 days relative to control; assay type: functional
[4] = tested on: Acanthocheilonema viteae; assay: Antifilarial activity against Acanthocheilonema viteae infected Mastomys coucha assessed as macrofilariacidal activity at 200 mg/kg, ip for 5 days relative to control; assay type: functional; details: route intraperitoneal
[5] = tested on: Acanthocheilonema viteae; assay: Antifilarial activity against Acanthocheilonema viteae infected Mastomys coucha assessed as sterilization of female worms at 100 mg/kg, po for 5 days relative to control; assay type: functional

| Structure (SMILES) | Activity [1] | Activity [2] | Activity [3] | Activity [4] [%] | Activity [5] [%] | Activity ([2]; route intraperitoneal) [%] | Activity ([3]; route intraperitoneal) [%] |
| --- | --- | --- | --- | --- | --- | --- | --- |
| CC(=O)OC1CCCCC1N1CCC(Cc2ccccc2)CC1 (stereo not given) | inactive | inactive | inactive |  |  |  |  |
| CC(=O)OC(C)N1CCC(Cc2ccccc2)CC1 (stereo not given) | inactive |  | inactive | 83.4 |  |  |  |
| CC(O)N1CCC(Cc2ccccc2)CC1 (stereo not given) | inactive | inactive | inactive |  |  |  |  |
| CC(O)Nc1ccco1 (stereo not given) |  |  | inactive | 81.3 | 82 |  |  |
| CC(=O)OC1CCCCC1N1CCN(C)CC1 (stereo not given) | inactive | inactive | inactive |  |  |  |  |
| CC(=O)OC1CCCCC1N1CCCCC1 (stereo not given) | inactive | inactive | inactive |  |  |  |  |
| CC(=O)OC1CCCCC1Nc1ccccc1 (stereo not given) | inactive | inactive | inactive |  |  |  |  |
| OC1CCCCC1Nc1ccccc1 (stereo not given) | inactive | inactive | inactive |  |  |  |  |
| CC(=O)OC(C)Nc1ccco1 (stereo not given) | inactive | inactive | inactive |  |  |  |  |
| OC1CCCCC1N1CCC(Cc2ccccc2)CC1 (stereo not given) | inactive | inactive | inactive |  |  |  |  |
| CC(O)N1CCCCC1C (stereo not given) | inactive | inactive | inactive |  |  |  |  |
| OC1CCCCC1N1CCCCC1 (stereo not given) | inactive |  | inactive |  |  | 88.9 |  |
| CC(=O)OC1CCCCC1N1CCOCC1 (stereo not given) | inactive | inactive | inactive |  |  |  |  |
| CC(=O)OC(C)N1CCCCC1C (stereo not given) | inactive | inactive | inactive |  |  |  |  |
| OC1CCCCC1N1CCOCC1 (stereo not given) | inactive | inactive | inactive |  |  |  |  |
| CCN(CC)C(=O)N1CCN(C)CC1 [DIETHYLCARBAMAZINE] | inactive | inactive |  |  |  |  | 90 |
| CN1CCN(C2CCCCC2O)CC1 (stereo not given) | inactive |  | inactive |  |  |  |  |
